Laboratory results as given in patent publication US9642819B2, “Low dosage serotonin 5-HT2A receptor agonist to suppress inflammation” (BOARD OF SUPERVISORS OF LOUISIANA STATE UNIVERSITY AND …, priority 2008, dated 2017).

How the values were obtained:
Type in all cases: cell-based
[1] = test system: IL-6 gene expression; assay: TNF-α induced IL-6 gene expression in primary rat aortic smooth muscle cells; details: RASM passage 4, media with FBS, 24 h pretreatment, TNF-α 10 ng/ml, read-out: IC50 for proinflammatory gene expression inhibition for IL-6
Procedure: RASM cells and treatment. Rat aortic smooth muscle (RASM) cells were isolated from adult 180 g male Sprague-Dawley rats and provided by the Cell and Molecular Core Facility in the Department of Pharmacology at LSUHSC-NO. Isolated RASM cells were grown in M-199 media containing 10% fetal bovine serum (Gibco), 100 units/mL penicillin, and 100 µg/mL streptomycin, and incubated at 37° C. in 5% CO2. Cells for all assays were used between passages 3 and 5. Prior to treatments, cells were grown in M-199 media with 10% fetal bovine serum (FBS) until 30-50% confluent. […]
RNA isolation and Quantitative Realtime-PCR. […]
The sequences of primers used are: 5-HT2AR (5-hydroxytryptamine 2A receptor): forward primer 5′-[…]-3′ (SEQ ID NO: 1), reverse primer, 5′[…]-3′ (SEQ ID NO: 2); ICAM-1 (intracellular adhesion molecule 1): forward primer, 5′-[…]-3′ (SEQ ID NO: 3, reverse primer, 5′-[…]-3′ (SEQ ID NO: 4); VCAM-1 (vascular adhesion molecule 1): forward primer, 5′-[…]-3′ (SEQ ID NO: 5), reverse primer, 5′-[…]-3′ (SEQ ID NO: 6); IL-6 (interleukin-6): forward primer, 5′-[…] […]-3′ (SEQ ID NO: 7), reverse primer, 5′-[…]-3′ (SEQ ID NO: 8); and cyclophillin B (control amplicon): forward primer, 5′-[…]-3′ (SEQ ID NO: 9), reverse primer, 5′-[…]-3′ (SEQ ID NO: 10). […] Quantitative determination of gene expression levels using a 2-step cycling protocol was performed on a MyIQ-5 Cycler (Bio-Rad, Hercules Calif.). […]

[2] = test system: IL-6 expression; assay: TNF-α induced IL-6 expression in rat primary aortic endothelial cells; details: 10 pM, 60 minutes prior to TNF-alpha 10 ng/ml
Procedure: (§1) Experiments were conducted to analyze for the effect of 5-HT2A receptor activation on proinflammatory marker expression in other cell types. Human neuroblastoma cells (SHSY5Y) and rat glioma cells (C6) can be obtained from the American Type Culture Collection (Manassas, Va.), but were provided Purdue University. The cells were grown in DMEM+10% FBS. DMEM was made and provided by the Cell and Molecular Core of the Mentoring in Cardiovascular Biology COBRE center at LSUHSC-NO. FBS was purchased from Invitrogen (Carlsbad, Calif.). Primary rat aortic endothelial cells were prepared fresh and provided by the Cell and Molecular Core of the Mentoring in Cardiovascular Biology COBRE center at LSUHSC-NO. Cells were tested at passages 3-4. Cells were grown in endothelial cell growth medium (Cell Applications, Inc.). Primary rat bronchoaveolar macrophage cells were obtained by lung lavage from rats and used at day 3 or 4 post plating in DMEM+10% FBS.
(§2) All treatments with 5-HT2A receptor agonists occurred 1 hour prior to the addition of TNF-alpha (10 ng/ml) or LPS (100 ng or 1 mg) depending on the experiment. All RNA isolations, cDNA synthesis, QPCR gene expression assays examining ICAM1, VCAM1, and IL6, and data analysis were performed as described above in Example 1, except the primers were different for the human cell experiment. […]

[3] = test system: VCAM-1 gene expression; assay: TNF-α induced VCAM-1 gene expression in rat primary aortic endothelial cells; details: 10 pM, 60 minutes prior to TNF-alpha 10 ng/ml
Procedure: as §1, §2

Compound: COc1cc(C[C@@H](C)N)c(OC)cc1I [(R)-DOI, (R)-1-(2,5-dimethoxy-4-iodophenyl)-2-aminopropane]
- IC50 [1]: 0.0103 nM
- effect on TNF-α-induced IL-6 expression in aortic endothelial cells [2]: potently inhibited
- effect on TNF-alpha induced increase in VCAM-1 gene expression in aortic endothelial cells [3]: less potent
